One data set has as its system tumors. Conditions: prior art statement; cited from earlier work.
The conditions of data set [1]: prior art statement; cited from earlier work.
Another data set relates to Glioma 261 tumor. Briefly: Neutron capture activity in mice with intracerebral Glioma 261 tumor. Conditions: group A: Gd-Tex intravenous plus 1.2×10^12 neutrons/cm^2 (20 Gy), versus groups B-E; female C57BL/6 mice, up to 100 days. In kind it is in vivo. The procedure: In vivo activity for neutron capture therapy is determined, e.g., by post-mortem histological examination of brain tumor tissue by hematoxylin and eosin, as described in Saris et al., Cancer Research, vol. 52 (1992). The antitumor effects of neutron capture therapy are evaluated by implanting Glioma 261 tumor fragments into the brain of a mouse. Approximately 3 hours after administration of a neutron capture agent to be tested, the head is irradiated a with 1.2×10^12 neutron beam (resulting in a planned dose of […]). After 100 days the mouse is sacrificed and the tumorous and non-tumorous sections of the brain are stained with hematoxylin and eosin for histologic examination. The tumor bearing and control brain tissue sections are compared.
This procedure is a modification of a procedure initially described by Saris et al., Cancer Research, vol. 52 (1992). Glioma 261 tumor fragments are injected approximately 2 mm deep to the dura of the brain in 42 female C57BL/6 mice. The mice are randomized into 5 groups. The mice in group A receive […] mg/kg Gd-Tex and 1.2×10^12 neutrons/cm^2 resulting in 20 Gy. Group B mice receive 1.2×10^12 neutrons/cm^2 resulting in 20 Gy. The mice in group C receive […] mg/kg Gd-Tex and 10 Gy of photon irradiation. Group D receives […] mg/kg of Gd-Tex alone. Group E receives no treatment. […]

The test system of data set [2] is V79 Chinese hamster cells. Kind of data set: V79 Chinese hamster cell survival assay after neutron irradiation. Format: cell-based. The settings on record: 30 ppm, incubated twelve hours; neutron beam 2.8×10^11 n/cm^2 min; colony growth 5-6 days. The procedure: In vitro activity for neutron capture therapy is determined, e.g., by measuring the effect of low-level, thermal neutron irradiation on the V79 […] cell line in culture, and measuring resultant cytotoxicity, for example as described by Fairchild et al., Cancer Research 50. After the V79 cells are exposed to a neutron capture agent, they are irradiated with a neutron beam at a fluence rate of 2.8×10^11 n/cm^2 min. The cells are plated for undisturbed colony growth for 5-6 days, after which the remaining cell population is assessed.
The effect of neutron irradiation on V79 Chinese hamster cells incubated for twelve hours with ^157Gd-Tex is determined by a modification of the procedure originally described by Fairchild et al., Cancer Research 50 (1990). Three sets of sample plates of V79 cells are prepared. The first set (control cells) are suspended with 30 ppm ^157Gd-Tex in growth medium. The second set (washed cells) are suspended with 30 ppm ^157Gd-Tex in growth medium, then washed 3 times with PBS, trypsinized and harvested with gadolinium from reagents prior to suspension. The third set (ambient cells) are suspended in a 30 ppm ^157Gd containing medium.
All of the cells are irradiated within 1-2 hours following suspension in growth medium at a population density of 3.0×10^5 cells/ml. The neutron beam fluence rate at the center of the sample is 2.8×10^11 n/cm^2 min. […]

In the case of `O=C([O-])CN1CCN(CC(=O)[O-])CCN(CC(=O)O)CCN(CC(=O)[O-])CC1.[Gd+3]` [Gd-DOTA, gadoteric acid], the “selectivity for tumors / accumulation in tumor tissue” value (shortened to “selectivity for tumors / accumulation”) in the data set on tumors was “not found to be tumor selective”.

Consider “tetrakiscarborane carboxylate ester of 2,4-(a,b-dihydroxyethyl)deuteroporphyrin [BOPP]”, for which the “selectivity for tumors / accumulation” value in the data set with tumors was “poor selectivity for tumors”. The phototoxicity result in data set [1] is reported as “phototoxic”.

As to `O=C([O-])CN(CCN(CC(=O)[O-])CC(=O)O)CCN(CC(=O)[O-])CC(=O)O.[Gd+3]` [Gd-DTPA, gadolinium diethylenetriamine-pentaacetic acid], the “selectivity for tumors / accumulation” value in the data set with tumors was “not found to be tumor selective”.

As to “bis(acetato-O)[9,10-diethyl-20,21-bis[2-[2-(2-methoxyethoxy)ethoxy]ethoxy]-4,15-dimethyl-8,11-imino-3,6:16,13-dinitrilo-1,18-benzodiazacycloeicosine-5,14-dipropanolato-N1,N18,N23,N24,N25]gadolinium [Gd-Tex]”, in the data set on Glioma 261 tumor, the survival rate entry is listed as “greater survival rate than any of the other groups”.

`N[C@@H](Cc1ccc(B(O)O)cc1)C(=O)O` [p-boron-phenylalanine]: in the data set with tumors, the “selectivity for tumors / accumulation” value is “limited selectivity for tumors” and the tumor/blood concentration ratios entry is recorded as “poor tumor/blood concentration ratios”.

Regarding “^157Gd complex of 4,5-diethyl-10,23-dimethyl-9,24-bis(3-hydroxy propyl)-16,17-bis[2-[2-(2-methoxyethoxy)ethoxy]ethoxy]pentaazapentacyclo[20.2.1.1^3,6.1^8,11.0^14,19]heptacos a-1,3,5,7,9,11(27),12,14,16,18,20,22(25),23-tridecaene bis acetate [^157Gd-Tex]”, the “survival of the control cells compared with the washed or ambient cells” value in data set [2] is recorded as “significantly higher”.

The values above are taken from patent US20060292072A1, “Agents for neutron capture therapy” (Pharmacyclics, Inc., priority 2001, published 2006).
